In patent US7829665B2 (priority 2005, dated 2010):
pEC50, pIC50: −log10 of the molar value. Like-named read-outs stand apart in the source and are kept apart here.

Columns and labels:
[1] = system: HCV sub-genomic replicon in GS4.3 cells (HuH-7 hepatoma cells); test: Quantitation by ELISA of Neomycin phosphotransferase II (NPTII) in the HCV sub-genomic replicon, GS4.3; type: cell-based, hepatitis C virus; conditions: Hepatitis C virus
Description: The HCV sub-genomic replicon (1377/NS3-3′, accession No. AJ242652), stably maintained in HuH-7 hepatoma cells, was created by Lohmann et al. Science 285: 110-113 (1999). The replicon-containing cell culture, designated GS4.3, was obtained from Dr. Christoph Seeger of the Institute for Cancer Research, Fox Chase Cancer Center, Philadelphia, Pa.
GS4.3 cells were maintained at 37° C., 5% CO2, in DMEM (Gibco 11965-092) supplemented with L-glutamine 200 mM (100×) (Gibco25030-081), non-essential amino acids (NEAA) (Biowhittaker 13-114E), heat-inactivated (HI) Fetal Bovine Serum (FBS) (Hyclone SH3007.03) and 750 μg/ml geneticin (G418) (Gibco 10131-035). Cells were sub-divided 1:3 or 4 every 2-3 days.
24 h prior to the assay, GS4.3 cells were collected, counted, and plated in 96-well plates (Costar 3585) at 7500 cells/well in 100 μl standard maintenance medium (above) and incubated in the conditions above. To initiate the assay, culture medium was removed, cells were washed once with PBS (Gibco 10010-023) and 90 μl Assay Medium (DMEM, L-glutamine, NEAA, 10% HI FBS, no G418) was added. Inhibitors were made as a 10× stock in Assay Medium, (3-fold dilutions from 10 μM to 56 pM final concentration, final DMSO concentration 1%), 10 μl were added to duplicate wells, plates were rocked to mix, and incubated as above for 72 h.
An NPTII Elisa kit was obtained from AGDIA, Inc. (Compound direct ELISA test system for Neomycin Phosphotransferase II, PSP 73000/4800). Manufacturer's instructions were followed, with some modifications. 10×PEB-1 lysis buffer was made up to include 500 μM PMSF (Sigma P7626, 50 mM stock in isopropanol). After 72 h incubation, cells were washed once with PBS and 150 μl PEB-1 with PMSF was added per well. Plates were agitated vigorously for 15 minutes, room temperature, then frozen at −70° C. Plates were thawed, lysates were mixed thoroughly, and 100 μl were applied to an NPTII Elisa plate. A standard curve was made. Lysate from DMSO-treated control cells was pooled, serially diluted with PEB-1 with PMSF, and applied to duplicate wells of the ELISA plate, in a range of initial lysate amount of 150 ul-2.5 ul. In addition, 100 μl buffer alone was applied in duplicate as a blank. Plates were sealed and gently agitated at room temperature for 2 h. Following capture incubation, the plates were washed 5×300 μl with PBS-T (0.5% Tween-20, PBS-T was supplied in the ELISA kit). For detection, a 1× dilution of enzyme conjugate diluent MRS-2 (5×) was made in PBS-T, into which 1:100 dilutions of enzyme conjugates A and B were added, as per instructions. Plates were resealed, and incubated with agitation, covered, room temperature, for 2 h. The washing was then repeated and 100 μl of room temperature TMB substrate was added. After approximately 30 minutes incubation (room temperature, agitation, covered), the reaction was stopped with 50 μl 3M sulfuric acid. Plates were read at 450 nm on a Molecular Devices Versamax plate reader.
Inhibitor effect was expressed as a percentage of DMSO-treated control signal, and inhibition curves were calculated using a 4-parameter equation: y=A+((B−A)/(1+((C/x)^D))), where C is half-maximal activity or EC50.

[2] = target: T1, full-length NS3/NS4A-2 (HCV NS3 protease) (Hepatitis C virus genotype 1a, UniProt P27958); test: NS3-NS4 protease assay / NS3 inhibition assay (RETS1 substrate, fluorescence kinetic read); type: biochemical
T1 construct: Recombinant E. coli or Baculovirus full-length NS3 was diluted to 3.33 μM with assay buffer; made in house; host or cells: E. coli or baculovirus (BV) expression system
How it was run: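 Ki values come from IC50 fits corrected via Ki=IC50/(1+[S]/Km), with Km 2.03 μM for E. coli and 1.74 μM for baculovirus full-length NS3. Enzyme (2 or 3 nM NS3, respectively, complexed with NS4A-2) sat with compound, top concentration 50 microM, for 10 min at room temperature. Cleavage of RETS1 (8 μM working solution) was then followed by fluorescence (335/495 nm) over 30 min.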

[3] = Huh-7, GS4.3 cells, 72 h incubation, NPTII ELISA, read-out: Replicon EC50
[4] = recombinant E. coli or Baculovirus full-length NS3 with NS4A-2, read-out: NS3-NS4 IC50
[5] = Huh-7, Table 26, read-out: EC50

T1 sequence (P27958 1027-1657): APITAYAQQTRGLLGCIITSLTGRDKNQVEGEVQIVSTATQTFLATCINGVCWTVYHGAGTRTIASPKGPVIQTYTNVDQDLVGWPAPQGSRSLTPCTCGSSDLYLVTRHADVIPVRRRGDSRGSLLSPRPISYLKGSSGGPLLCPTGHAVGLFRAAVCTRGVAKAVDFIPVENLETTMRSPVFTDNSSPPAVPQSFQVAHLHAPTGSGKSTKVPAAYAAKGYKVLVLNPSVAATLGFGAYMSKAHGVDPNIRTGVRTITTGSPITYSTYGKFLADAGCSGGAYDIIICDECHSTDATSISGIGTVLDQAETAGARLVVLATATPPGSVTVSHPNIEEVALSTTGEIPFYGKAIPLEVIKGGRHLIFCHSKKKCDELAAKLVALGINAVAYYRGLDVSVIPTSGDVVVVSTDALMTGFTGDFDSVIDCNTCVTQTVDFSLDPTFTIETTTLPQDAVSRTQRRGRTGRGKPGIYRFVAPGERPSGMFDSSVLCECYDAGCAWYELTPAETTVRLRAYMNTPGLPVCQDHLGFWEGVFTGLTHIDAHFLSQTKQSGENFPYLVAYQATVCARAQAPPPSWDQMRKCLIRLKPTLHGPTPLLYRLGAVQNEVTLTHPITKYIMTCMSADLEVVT

SMILES	pEC50 [1, 3]	pIC50 [2, 4]	pEC50 [1, 5]	pIC50 [2]	pEC50 ([1]; Huh-7, 72 h, read-out: Replicon EC50)
CC(C)(C)OC(=O)N[C@H]1CCCCC/C=C\[C@@H]2C[C@@]2(C(=O)NCC#N)NC(=O)[C@@H]2C[C@@H](OC(=O)N3Cc4cccc(F)c4C3)CN2C1=O [Compound 615]	> 5.00	> 6.00	–	–	–
CC(C)(C)OC(=O)N[C@H]1CCCCC/C=C\[C@@H]2C[C@@]2(C(=O)Nc2n[nH]cc2C2CC2)NC(=O)[C@@H]2C[C@@H](OC(=O)N3Cc4cccc(F)c4C3)CN2C1=O [Compound 636]	> 7.00	> 6.00	–	–	–
CN(C)C(=O)[C@@]12C[C@H]1/C=C\CCCCC[C@H](NC(=O)OC(C)(C)C)C(=O)N1C[C@H](OC(=O)N3Cc4cccc(F)c4C3)C[C@H]1C(=O)N2 [Compound 610]	< 5.00	> 6.00	–	–	–
CC[C@@H]1C[C@H]2C(=O)N[C@]3(C(=O)NS(=O)(=O)C4CC4)C[C@H]3/C=C\CCCCC[C@H](NC(=O)C3CC3)C(=O)N2C1 [Compound 318]	< 5.00	> 6.00	–	–	–
O=C1N[C@]2(C(=O)NS(=O)(=O)C3CC3)C[C@H]2/C=C\CCCCC[C@H](NCc2cc(F)cc(F)c2)C(=O)N2C[C@H](OC(=O)N3Cc4cccc(F)c4C3)C[C@@H]12 [Compound 903]	> 7.00	> 7.00	–	–	–
O=C1N[C@]2(C(=O)NS(=O)(=O)C3CC3)C[C@H]2/C=C\CCCCC[C@H](NCC2CCCO2)C(=O)N2C[C@H](OC(=O)N3Cc4cccc(F)c4C3)C[C@@H]12 (stereo partly drawn) [Compound 916]	> 6.00	> 7.00	–	–	–
CCCNC(=O)[C@@]12C[C@H]1/C=C\CCCCC[C@H](NCc1ccc(F)c(F)c1)C(=O)N1C[C@H](OC(=O)N3Cc4cccc(F)c4C3)C[C@H]1C(=O)N2 [Compound 625]	> 5.00	> 5.00	–	–	–
CN(C)S(=O)(=O)NC(=O)[C@@]12C[C@H]1/C=C\CCCCC[C@H](NC(=O)OC1CCCC1)C(=O)N1C[C@H](OC(=O)N3Cc4cccc(F)c4C3)C[C@H]1C(=O)N2 [Compound 215]	> 7.00	> 7.00	–	–	–
CN(C)C(=S)N[C@H]1CCCCC/C=C\[C@@H]2C[C@@]2(C(=O)NS(=O)(=O)C2CC2)NC(=O)[C@@H]2C[C@@H](OC(=O)N3Cc4cccc(F)c4C3)CN2C1=O [Compound 922]	> 6.00	> 7.00	–	–	–
CC(C)(C)OC(=O)N[C@H]1CCCCC/C=C\[C@@H]2C[C@@]2(C(=O)NS(=O)(=O)C2CC2)NC(=O)[C@@H]2C[C@@H](OC(=O)Nc3nc4ccccc4s3)CN2C1=O [Compound 140]	> 6.00	> 7.00	–	–	–
CC(C)(C)OC(=O)N[C@H]1CCCCC/C=C\[C@@H]2C[C@@]2(C(=O)NS(=O)(=O)NC2CC2)NC(=O)[C@@H]2C[C@@H](OC(=O)N3Cc4cccc(Cl)c4C3)CN2C1=O [Compound 213]	> 7.00	> 7.00	–	–	–
CN(C)c1c(N[C@H]2CCCCC/C=C\[C@@H]3C[C@@]3(C(=O)NS(=O)(=O)C3CC3)NC(=O)[C@@H]3C[C@@H](OC(=O)N4Cc5cccc(F)c5C4)CN3C2=O)c(=O)c1=O [Compound 185]	> 5.00	> 7.00	–	–	–
O=C1N[C@]2(C(=O)NS(=O)(=O)C3CC3)C[C@H]2/C=C\CCCCC[C@H](NCCC(F)(F)F)C(=O)N2C[C@H](OC(=O)N3Cc4cccc(F)c4C3)C[C@@H]12 [Compound 900]	> 7.00	> 7.00	–	–	–
O=C1N[C@]2(C(=O)NS(=O)(=O)C3CC3)C[C@H]2/C=C\CCCCC[C@H](Nc2c(N3CCCCC3)c(=O)c2=O)C(=O)N2C[C@H](OC(=O)N3Cc4cccc(F)c4C3)C[C@@H]12 [Compound 198]	> 6.00	> 7.00	–	–	–
CCN(C)S(=O)(=O)NC(=O)[C@@]12C[C@H]1/C=C\CCCCC[C@H](NC(=O)OC(C)(C)C)C(=O)N1C[C@H](OC(=O)N3Cc4ccccc4C3)C[C@H]1C(=O)N2 [Compound 200]	> 7.00	> 7.00	–	–	–
CN(C)S(=O)(=O)NC(=O)[C@@]12C[C@H]1CCCCC(F)(F)CC[C@H](NC(=O)OC(C)(C)C)C(=O)N1C[C@H](OC(=O)N3Cc4cccc(F)c4C3)C[C@H]1C(=O)N2 [Compound 1016]	> 7.00	> 7.00	–	–	–
CC(C)(C)OC(=O)N[C@H]1CCCCC/C=C\[C@@H]2C[C@@]2(C(=O)NS(=O)(=O)C2CC2)NC(=O)[C@@H]2C[C@@H](OC(=O)N3CCc4c(F)ccc(Cl)c4C3)CN2C1=O [Compound 259]	> 7.00	> 7.00	–	–	–
O=C1N[C@]2(C(=O)NS(=O)(=O)C3CC3)C[C@H]2/C=C\CCCCC[C@H](NC2CCCC2)C(=O)N2C[C@H](OC(=O)N3Cc4cccc(F)c4C3)C[C@@H]12 [Compound 919]	> 5.00	> 7.00	–	–	–
CC(C)(C)OC(=O)N[C@H]1CCC(F)(F)CC/C=C\[C@@H]2C[C@@]2(C(=O)NS(=O)(=O)C2CC2)NC(=O)[C@@H]2C[C@@H](OC(=O)N3CCc4ccccc4C3)CN2C1=O [Compound 1014]	> 7.00	> 7.00	–	–	–
CC(C)(C)OC(=O)N[C@H]1CCCCC/C=C\[C@@H]2C[C@@]2(C(=O)NS(=O)(=O)c2cccs2)NC(=O)[C@@H]2C[C@@H](OC(=O)N3Cc4cccc(Cl)c4C3)CN2C1=O [Compound 166]	> 7.00	> 7.00	–	–	–
O=C(Cc1ccccc1)N[C@H]1CCCCC/C=C\[C@@H]2C[C@@]2(C(=O)NS(=O)(=O)C2CC2)NC(=O)C2CCCN2C1=O (stereo partly drawn) [Compound 2144]	–	< 5.00	> 6.00	–	–
C[C@H](NC(=O)O[C@@H]1C[C@H]2C(=O)N[C@]3(C(=O)NS(=O)(=O)C4CC4)C[C@H]3/C=C\CCCCC[C@H](NC(=O)OC(C)(C)C)C(=O)N2C1)c1ccc(F)cn1 [Compound 149]	< 5.00	> 7.00	–	–	–
N[C@H]1CCCCC/C=C\[C@@H]2C[C@@]2(C(=O)NS(=O)(=O)C2(Cc3ccccc3)CC2)NC(=O)[C@@H]2C[C@@H](OC(=O)N3Cc4cccc(Cl)c4C3)CN2C1=O [Compound 163]	> 5.00	–	–	> 7.00	–
CC(C)(C)OC(=O)NC1CCCCC/C=C\[C@H]2C[C@@]2(C(=O)NS(=O)(=O)NCC(F)(F)F)NC(=O)C2CC(OC(=O)N3Cc4cccc(Cl)c4C3)CN2C1=O (single isomer, unassigned) [Compound 226]	> 7.00	–	–	–	–
C[C@@H](NC(=O)O[C@@H]1C[C@H]2C(=O)N[C@]3(C(=O)NS(=O)(=O)C4CC4)C[C@H]3/C=C\CCCCC[C@H](NC(=O)OC(C)(C)C)C(=O)N2C1)c1ccc(F)cn1 [Compound 150]	< 5.00	–	–	–	–
CC(C)(C)OC(=O)N[C@H]1CCCCC/C=C\[C@@H]2C[C@@]2(C(=O)NS(=O)(=O)C2(C)CC2)NC(=O)[C@@H]2C[C@@H](OC(=O)N3Cc4ccccc4C3)CN2C1=O [Compound 100, (1S,4R,6S,14S,18R)-1,3-Dihydro-isoindole-2-carboxylic acid 14-tert-butoxycarbonylamino-4-(1-methylcyclopropane-1-sulfonyl)aminocarbonyl-2,15-dioxo-3,16-diaza-tricyclo[14.3.0.0^4,6]nonadec-7-en-18-yl ester]	–	–	–	–	> 7.00
O=C(CCC(F)(F)F)N[C@H]1CCCCC/C=C\[C@@H]2C[C@@]2(C(=O)NS(=O)(=O)C2CC2)NC(=O)[C@@H]2CCCN2C1=O [Compound 2139]	–	–	> 6.00	–	–
O=C(N[C@H]1CCCCC/C=C\[C@@H]2C[C@@]2(C(=O)NS(=O)(=O)C2CC2)NC(=O)[C@@H]2C[C@@H](OC(=O)N3Cc4cccc(F)c4C3)CN2C1=O)C(O)C(F)(F)F (single isomer, unassigned) [Compound 247]	> 7.00	–	–	–	–
